From the supplement of paper PMC13380429

Experiments:
Conditions in all cases: 72 h
[1] = tested on: Calu-3; assay: drug sensitivity score (DSS) for viability; higher = more toxic; extreme values may be limits of the assay
[2] = tested on: HepG2; assay: as above
[3] = tested on: U2OS; assay: as above
[4] = tested on: Vero E6; assay: as above
[5] = tested on: Caco-2; assay: cell viability relative to DMSO; higher = less toxic
[6] = tested on: HepG2; assay: as above
[7] = tested on: U2OS; assay: as above
[8] = tested on: Vero E6; assay: as above
[9] = tested on: HepG2; assay: relative viability EC50 (midpoint between 100% and the lowest measured viability); higher = less toxic
[10] = tested on: U2OS; assay: as above
[11] = tested on: Vero E6; assay: as above
[12] = tested on: Caco-2; assay: drug sensitivity score (DSS) for viability; higher = more toxic; extreme values may be limits of the assay
[13] = tested on: Calu-3; assay: cell viability relative to DMSO; higher = less toxic
[14] = tested on: Calu-3; assay: relative viability EC50 (midpoint between 100% and the lowest measured viability); higher = less toxic

SMILES | drug sensitivity score [1] | drug sensitivity score [2] | drug sensitivity score [3] | drug sensitivity score [4] | cell viability ([5]; 1 nM) [%] | cell viability ([5]; 10 nM) [%] | cell viability ([5]; 100 nM) [%] | cell viability ([5]; 1000 nM) [%] | cell viability ([5]; 10000 nM) [%] | cell viability ([6]; 1 nM) [%] | cell viability ([6]; 10 nM) [%] | cell viability ([6]; 100 nM) [%] | cell viability ([6]; 1000 nM) [%] | cell viability ([6]; 10000 nM) [%] | cell viability ([7]; 1 nM) [%] | cell viability ([7]; 10 nM) [%] | cell viability ([7]; 100 nM) [%] | cell viability ([7]; 1000 nM) [%] | cell viability ([7]; 10000 nM) [%] | cell viability ([8]; 1 nM) [%] | cell viability ([8]; 10 nM) [%] | cell viability ([8]; 100 nM) [%] | cell viability ([8]; 1000 nM) [%] | cell viability ([8]; 10000 nM) [%] | relative viability EC50 [9] [µM] | relative viability EC50 [10] [µM] | relative viability EC50 [11] [µM] | drug sensitivity score [12] | cell viability ([13]; 1 nM) [%] | cell viability ([13]; 10 nM) [%] | cell viability ([13]; 100 nM) [%] | cell viability ([13]; 1000 nM) [%] | cell viability ([13]; 10000 nM) [%] | relative viability EC50 [14] [µM]
O=C(N[C@H](CO)[C@H](O)c1ccc([N+](=O)[O-])cc1)C(Cl)Cl [chloramphenicol] | 0 | 1.1 | 0 | 0 | – | – | – | – | – | – | – | – | – | – | – | – | – | – | – | – | – | – | – | – | – | – | – | – | – | – | – | – | – | –
Oc1ccc(Cl)cc1Cc1cc(Cl)ccc1O [dichlorophen] | – | 1.1 | 0 | 0.3 | 107 | 88.9 | 108 | 70.1 | 54.6 | 105 | 89.4 | 96.9 | 97.9 | 76.6 | 101 | 95.1 | 96.7 | 99.7 | 93.5 | 106 | 99.4 | 104 | 97.5 | 86.7 | > 10 | > 10 | > 10 | 5.9 | – | – | – | – | – | –
O=C(O)Cc1ccccc1Nc1c(Cl)cccc1Cl [diclofenac] | 0 | – | 0 | 0 | – | – | – | – | – | – | – | – | – | – | – | – | – | – | – | – | – | – | – | – | – | – | – | – | – | – | – | – | – | –
COc1ccc(-c2oc3c(CC=C(C)C)c(O[C@@H]4O[C@H](CO)[C@@H](O)[C@H](O)[C@H]4O)cc(O)c3c(=O)c2O[C@@H]2O[C@@H](C)[C@H](O)[C@@H](O)[C@H]2O)cc1 [icariin] | 0 | 0 | 0 | 0 | – | – | – | – | – | – | – | – | – | – | – | – | – | – | – | – | – | – | – | – | – | – | – | – | – | – | – | – | – | –
CCNC(=O)[C@@H]1CCCN1C(=O)[C@H](CCCNC(=N)N)NC(=O)[C@H](CC(C)C)NC(=O)[C@@H](CC(C)C)NC(=O)[C@H](Cc1ccc(O)cc1)NC(=O)[C@H](CO)NC(=O)[C@H](Cc1c[nH]c2ccccc12)NC(=O)[C@H](Cc1c[nH]cn1)NC(=O)[C@@H]1CCC(=O)N1 [leuprolide] | 0 | – | 0 | 0 | 107 | 114 | 107 | 114 | 72.2 | – | – | – | – | – | 92.6 | 96.9 | 103 | 97 | 102 | 102 | 99.3 | 98.6 | 105 | 105 | – | > 10 | > 10 | 0.7 | 99.5 | 99.3 | 95 | 110 | 103 | > 10
N[C@@H](Cc1cc(I)c(Oc2ccc(O)c(I)c2)c(I)c1)C(=O)O [liothyronine] | 0 | 0 | 0 | 1 | 93.8 | 98.5 | 96.7 | 98.1 | 96.5 | 102 | 104 | 107 | 96.6 | – | 97.1 | 97.5 | 93.4 | 96 | 93.5 | 104 | 92.4 | 92.6 | 88.6 | 91.3 | – | – | – | 0 | 98.9 | 96.8 | 92.5 | 93.5 | 95 | –
C[C@H](Cc1ccc(O)c(O)c1)[C@@H](C)Cc1ccc(O)c(O)c1 [masoprocol] | 0 | 0 | 0 | 1.4 | 88.3 | 83.1 | 72.1 | 78.6 | 55.5 | 98.3 | 94 | 94.5 | 101 | 97.1 | 92.1 | 104 | 97.7 | 97.8 | 95.9 | 102 | 91.6 | 88.6 | 91.5 | 81.3 | > 10 | > 10 | > 10 | 9.6 | 95.5 | 108 | 93.4 | 93.6 | 93 | > 10
COC(=O)CCC(=O)CN [methyl-aminolevulinate] | 0 | 0 | 0 | 0 | – | – | – | – | – | 83.8 | 98.4 | 94.5 | 84 | 87.8 | 90.5 | 96 | 96.8 | 97.3 | 104 | 97.1 | 89 | 99.5 | 88.8 | 105 | > 10 | > 10 | > 10 | – | 101 | 96.5 | 98 | 100 | 93.4 | > 10
CC(C)(O)[C@@H]1[C@H]2OC(=O)[C@@H]1[C@]1(O)C[C@H]3O[C@]34C(=O)O[C@H]2[C@]14C [picrotin] | 0 | 0 | 0 | – | – | – | – | – | – | – | – | – | – | – | – | – | – | – | – | – | – | – | – | – | – | – | – | – | – | – | – | – | – | –
CC(C)Cc1ccc([C@@H](C)C(=O)NS(C)(=O)=O)cc1 [reparixin] | 0 | 0 | 0 | 0 | – | – | – | – | – | – | – | – | – | – | – | – | – | – | – | – | – | – | – | – | – | – | – | – | – | – | – | – | – | –
CSCC[C@H](NC(=O)[C@H](CC(C)C)NC(=O)CNC(=O)[C@H](Cc1ccccc1)NC(=O)[C@H](Cc1ccccc1)NC(=O)[C@H](CCC(N)=O)NC(=O)[C@H](CCC(N)=O)NC(=O)[C@@H]1CCCN1C(=O)[C@H](CCCCN)NC(=O)[C@@H]1CCCN1C(=O)[C@@H](N)CCCN=C(N)N)C(N)=O [substance-P] | 0 | 0 | 0 | 0 | – | – | – | – | – | 88.1 | 96.3 | 100 | 107 | 105 | 99.5 | 97.2 | 96.2 | 96.7 | 98.2 | 102 | 97.5 | 103 | 102 | 99 | > 10 | > 10 | > 10 | – | 103 | 98.4 | 102 | 96.5 | 95.6 | > 10
CS(=O)(=O)c1ccc(-c2cn3ccccc3n2)cc1 [zolimidine] | – | 0 | 0 | 0.3 | – | – | – | – | – | 117 | 104 | 87.3 | 98.6 | 93.8 | 100 | 94.7 | 94.8 | 93.5 | 95.9 | 107 | 107 | 105 | 94.4 | 88 | > 10 | > 10 | > 10 | – | – | – | – | – | – | –
